Laboratory results from patent US12038447B2 (priority 2017, dated 2024).
Like-named read-outs stand apart in the source and are kept apart here.

Experiments:
[1] = pH titration of rinsed rSAM layers, ellipsometric thickness; format: physicochemical; conditions: on MBA SAMs
[2] = Fluorescence recovery after photobleaching (FRAP), lateral fluidity; format: physicochemical; conditions: 1 mol % FAM tagged amidine in E2 on COOH quartz
[3] = test system: human serum albumin (HSA) and lysozyme (LYZ); assay: Protein resistance of E0-6 rSAMs on MHA gold, IRAS amide I and ellipsometry; format: binding; conditions: HSA or LYZ 1 mg/mL, pH 8, rSAM on MHA gold
MC3T3-E1 cells = assay: Cell attachment and detachment on GRGDS functionalized rSAMs; conditions: for reduction in average projected cell area on MDSA versus MBA-SAMs: absence of GRGDS 3 in the layer; for average projected cell area: 5 hours
[4] = Critical micelle concentration from assembly kinetics, in situ ellipsometry; format: physicochemical; conditions: pH 9 buffer
[5] = Air and rinse stability of rSAMs, rinsing and drying cycles; format: physicochemical; conditions: rSAM on MHA-gold
[6] = Water solubility (qualitative); format: physicochemical
HA = conditions: cited from earlier work
[7] = test system: deactivated influenza virus H5N1; format: binding, Influenza A Virus, A/Anhui/01/2005(H5N1)
[8] = test system: Influenza A H5N1 (A/Anhui/2005) hemagglutinin (HA); format: binding
[9] = 100 μM added to cells on XGRGDS3,filler2=0.25 on MBA SAMs, 30 minutes

N=C(N)c1ccc(OCCCCCCCCCCOc2ccc(CCOCCOCCO)cc2)cc1 [E2, 4-[10-(4-{2-[2-(2-Hydroxy-ethoxy)-ethoxy]-ethyl}-phenoxy)-decyloxy]-benzamidine]
pH resistance of rinsed layers [1]: up to 6
diffusion coefficient from FRAP [2]: matching literature values of supported lipid bilayers
reduction of protein adsorption based on amide I band intensity [3]: more than 50%
reduction in average projected cell area on MDSA versus MBA-SAMs (MC3T3-E1 cells): 28%

N=C(N)c1ccc(OCCCCCCCCCCOc2ccc(CCOCCOCCOCCOCCO)cc2)cc1 [E4, 4-(10-{4-[2-(2-{2-[2-(2-Hydroxy-ethoxy)-ethoxy]-ethoxy}-ethoxy)-ethyl]-phenoxy}-decyloxy)-benzamidine]
protein adsorption / resistance [3]: less resistant
reduction in average projected cell area (MC3T3-E1 cells; 100 μM added to cells on XGRGDS3,filler2=0.25 on MBA SAMs, 37° C., 30 minutes): 65%
cell shape after addition (MC3T3-E1 cells; [9]): dramatic transition from a spread-out cell shape to a non-adhesive round shape
surface coverage by adherent cells normalized on average projected cell area (MC3T3-E1 cells; XGRGDS3,filler2=0 on MDSA-SAMs): 12%
average projected cell area (MC3T3-E1 cells; XGRGDS3,filler2=0 on MDSA-SAMs): 1634 μm^2
reduction in average projected cell area on MDSA versus MBA-SAMs (MC3T3-E1 cells): no significant differences
cells after replacing medium with fresh medium (MC3T3-E1 cells; after 100 μM exposure, fresh medium, 37° C., 24 hrs): retain their adhesive characteristic
critical micelle concentration (CMC) [4]: approximately 5 μM

N=C(N)c1ccc(OCCCCCCCCCCOc2ccc(CCOCCOCCOCCOCCOCCOCCO)cc2)cc1 [E6, 4-{10-[4-(2-{2-[2-(2-{2-[2-(2-Hydroxy-ethoxy)-ethoxy]-ethoxy}-ethoxy)-ethoxy]-ethoxy}-ethyl)-phenoxy]-decyloxy}-benzamidine]
protein adsorption / resistance [3]: less resistant
decrease in layer thickness after 2 cycles of rinsing with pH 8 buffer and drying [5]: 9 Å

C=C(C(=O)CNN[C@@H](CCCNC(=N)N)C(=O)NCC(=O)N[C@@H](CC(=O)O)C(=O)N[C@@H](CO)C(=O)O)c1cn(COCCOCCc2ccc(OCCCCCCCCCCOc3ccc(C(=N)N)cc3)cc2)nn1 [GRGDS 3, (2S,5S,11S)-16-(1-((2-(4-((10-(4-carbamimidoylphenoxy)decyl)oxy)phenethoxy)ethoxy)methyl)-1H-1,2,3-triazol-4-yl)-5-(carboxymethyl)-11-(3-guanidinopropyl)-2-(hydroxymethyl)-4,7,10,15-tetraoxo-3,6,9,12,13-pentaazaheptadec-16-enoic acid]
average projected cell area (MC3T3-E1 cells; XGRGDS3,filler2=0.1 on MDSA-SAMs): 1183 μm^2
average projected cell area (MC3T3-E1 cells; XGRGDS3,filler2=0.25 on MDSA-SAMs): 1282 μm^2
coverage of adhered cells versus amount in layer (MC3T3-E1 cells; XGRGDS3=0-0.25, 5 hours): correlated with the increasing amount of GRGDS3
average projected cell area versus surface without GRGDS3 (MC3T3-E1 cells; with filler 1, XGRGDS3=0.25 on MBA SAMs): an increase in average projected cell area
average projected cell area versus GRGDS density (MC3T3-E1 cells; with filler 1 on MDSA SAMs): no distinct differences
average projected cell area versus surface without GRGDS3 (MC3T3-E1 cells; with filler 2, XGRGDS3=0.1 and 0.25 on MDSA SAMs): a decrease in average projected cell area
average projected cell area versus GRGDS density (MC3T3-E1 cells; with filler 2 on MBA SAMs): no distinct differences

N=C(N)NCCC[C@H](N)C(=O)O [L-Arginine, reference compound]
cell shape after addition (MC3T3-E1 cells; [9]): most of the cells remained the spread-out shape

Cl.N=C(N)c1ccc(OCCCCCCCCCCOc2ccc(CCO)cc2)cc1 [compound 1, Amino(4-(10-(4-(2-hydroxyethyl)phenoxy)decyloxy)phenyl)methaniminium chloride]
water solubility [6]: poorly water-soluble
water solubility ([6]; listed as E0): poorly water soluble
protein adsorption / resistance [3]: most pronounced protein adsorption

CC(=O)NC1C(O)CC(OCCc2cn(CCOCCOCCc3ccc(OCCCCCCCCCCOc4ccc(C(=N)N)cc4)cc3)nn2)(C(=O)O)OC1C(O)C(O)CO (stereo not drawn) [compound 2, 5-Acetylamino-2-[2-(1-{2-[2-(2-{4-[10-(4-carbamimidoyl-phenoxy)-decyloxy]-phenyl}-ethoxy)-ethoxy]-ethyl}-1H-[1,2,3]triazol-4-yl)-ethoxy]-4-hydroxy-6-(1,2,3-trihydroxy-propyl)-tetrahydro-pyran-2-carboxylic acid]
water solubility [6]: highly water soluble

CO[C@]1(C(=O)O)C[C@H](O)[C@@H](NC(C)=O)[C@H]([C@H](O)[C@H](O)CO)O1 [α-methyl sialoside]
Kd (HA; read-out: Kd per SA or HA monomer unit): 2000 µM

mucin
Ki (HA; read-out: Ki of binding to HA): 2 µM
effect of mucin masking on virus adsorption to rSAM-2 [7]: effectively suppressed
effect of preincubating HA with mucin on HA binding to rSAM-2 [8]: effectively suppressed
